# Experimental data published in US10870638B2, “Pyridazinone compound or its salt, and herbicide containing it” (ISHIHARA SANGYO KAISHA, LTD., priority 2016, dated 2020).
# Legend:
# Type in all cases: in vivo
# Details in all cases: 14th day after application
# [1] = system: redroot pigweed (Amaranthus retroflexus L.); experiment: Test Example 2: soil application on the day after sowing, growth inhibition rate on 14th day
# Source text: (§1) Upland field soil was put into a 1/300,000 hectare pot, and seeds of various plants (barnyardgrass (Echinochloa crus-qalli L.), crabgrass (Digitaris sanquinalis L.), green foxtail (Setaria viridis L.), redroot pigweed (Amaranthus retroflexus L.), prickly sida (Sida spinosa L.), velvetleaf (Abutilon theophrasti MEDIC.), rice (Oryza sativa L.), corn (Zea mays L.), wheat (Triticum aestivum L.), soybean (Glycine max Merr.)) were sown. On the day after sowing, wettable powders or emulsifiable concentrates of the compounds of the present invention prepared in accordance with a conventional preparation method, were weighed so as to achieve the prescribed active ingredient amounts, and diluted with water in an amount corresponding to 1,000 liters per 1 hectare, followed by soil application by a small sprayer.
# (§2) On the 14th day after the application, the state of growth of the respective plants was visually observed, and the herbicidal effect was evaluated by a growth inhibition rate (%) of 0 (equivalent to the non-treated area) to 100 (complete kill).
# [2] = system: velvetleaf (Abutilon theophrasti MEDIC.); experiment: as above
# Source text: as §1, §2
# [3] = system: soybean (Glycine max Merr.); experiment: as above
# Source text: as §1, §2
# [4] = system: corn (Zea mays L.); experiment: as above
# Source text: as §1, §2
# [5] = system: barnyardgrass (Echinochloa crus-qalli L.); experiment: as above
# Source text: as §1, §2
# [6] = system: rice (Oryza sativa L.); experiment: as above
# Source text: as §1, §2
# [7] = system: wheat (Triticum aestivum L.); experiment: as above
# Source text: as §1, §2
# [8] = system: crabgrass (Digitaris sanquinalis L.); experiment: as above
# Source text: as §1, §2
# [9] = system: green foxtail (Setaria viridis L.); experiment: as above
# Source text: as §1, §2
# [10] = system: prickly sida (Sida spinosa L.); experiment: as above
# Source text: as §1, §2
# [11] = system: redroot pigweed (Amaranthus retroflexus L.); experiment: Test Example 1: foliar treatment, growth inhibition rate on 14th day
# Outline: (§3)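 Using a small sprayer, formulated compound in water (0.1 vol % surfactant, 1,000 L/ha) was applied to seedlings grown from seed in upland soil. Fourteen days on, growth state was observed and expressed as percent inhibition from 0 to 100.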
# [12] = system: soybean (Glycine max Merr.); experiment: as above
# Outline: (§4)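 Plants in upland soil were sprayed on the foliage at early leaf stages (wild oat 0.4–1.2, rice 0.2–2.7, green foxtail 0.5–3.2, soybean primary leaf) with wettable powder or emulsifiable concentrate formulations. Spray volume was 1,000 L/ha water containing 0.1 vol% spreader, at prescribed active-ingredient rates. Growth inhibition (0 = untreated, 100 = complete kill) was scored visually on day 14.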
# [13] = system: italian ryegrass (Lolium multiflorum Lam.); experiment: as above
# Outline: as §3
# [14] = system: corn (Zea mays L.); experiment: as above
# Outline: as §3
# [15] = system: barnyardgrass (Echinochloa crus-qalli L.); experiment: as above
# Outline: as §3
# [16] = system: rice (Oryza sativa L.); experiment: as above
# Outline: as §4
# [17] = system: wheat (Triticum aestivum L.); experiment: as above
# Outline: as §3
# [18] = system: wild oat (Avena fatua L.); experiment: as above
# Outline: as §4
# [19] = system: crabgrass (Digitaria sanquinalis L.); experiment: as above
# Outline: as §3
# [20] = system: green foxtail (Setaria viridis L.); experiment: as above
# Outline: as §4
# [21] = active ingredient amount 500 g/ha
# [22] = active ingredient amount 31 g/ha
# [23] = active ingredient amount 31 g/ha, visual, 0 = non-treated, 100 = complete kill
Compound,"Growth inhibition rate (%) Redroot pigweed [1, 22]","Growth inhibition rate (%) Velvetleaf [2, 22]","Growth inhibition rate (%) Soybean [3, 22]","Growth inhibition rate (%) Corn [4, 22]","Growth inhibition rate (%) Barnyardgrass [5, 22]","Growth inhibition rate (%) Rice [6, 22]","Growth inhibition rate (%) Wheat [7, 22]","Growth inhibition rate (%) Crabgrass [8, 22]","Growth inhibition rate (%) Green foxtail [9, 22]","Growth inhibition rate (%) Prickly sida [10, 22]","Growth inhibition rate (%) Redroot pigweed [11, 22]","Growth inhibition rate (%) Soybean [12, 22]","Growth inhibition rate (%) Italian ryegrass [13, 22]","Growth inhibition rate (%) Corn [14, 22]","Growth inhibition rate (%) Barnyardgrass [15, 22]","Growth inhibition rate (%) Rice [16, 22]","Growth inhibition rate (%) Wheat [17, 22]","Growth inhibition rate (%) Wild oat [18, 22]","Growth inhibition rate (%) Crabgrass [19, 22]","Growth inhibition rate (%) Green foxtail [20, 22]",other results
CC(=O)Oc1c(C)nn(C)c(=O)c1-c1cc(Oc2ccc3ccccc3n2)ccc1C [Compound 2-142],–,–,–,–,–,–,–,–,–,–,–,–,–,–,–,–,–,–,–,–,"Growth inhibition rate (%) Redroot pigweed [1, 21]: 0%; Growth inhibition rate (%) Velvetleaf [2, 21]: 0%; Growth inhibition rate (%) Soybean [3, 21]: 0%; Growth inhibition rate (%) Corn [4, 21]: 0%; Growth inhibition rate (%) Barnyardgrass [5, 21]: 100%; Growth inhibition rate (%) Rice [6, 21]: 90%; Growth inhibition rate (%) Wheat [7, 21]: 0%; Growth inhibition rate (%) Crabgrass [8, 21]: 98%; Growth inhibition rate (%) Green foxtail [9, 21]: 93%; Growth inhibition rate (%) Prickly sida [10, 21]: 0%; Growth inhibition rate (%) Redroot pigweed [11, 21]: 0%; Growth inhibition rate (%) Soybean [12, 21]: 25%; Growth inhibition rate (%) Italian ryegrass [13, 21]: 0%; Growth inhibition rate (%) Corn [14, 21]: 20%; Growth inhibition rate (%) Barnyardgrass [15, 21]: 100%; Growth inhibition rate (%) Rice [16, 21]: 80%; Growth inhibition rate (%) Wheat [17, 21]: 50%; Growth inhibition rate (%) Wild oat [18, 21]: 50%; Growth inhibition rate (%) Crabgrass [19, 21]: 83%; Growth inhibition rate (%) Green foxtail [20, 21]: 90%"
CC(=O)Oc1c(C)nn(C)c(=O)c1-c1cc(Oc2nc3ccccc3o2)ccc1C [Compound 2-138],0%,0%,0%,0%,93%,25%,0%,83%,90%,0%,0%,0%,20%,15%,90%,35%,10%,20%,65%,65%,–
CC(=O)Oc1c(C)nn(C)c(=O)c1-c1cc(Oc2ncc(C(F)(F)F)cc2Cl)ccc1C [1-40],0%,0%,0%,30%,100%,60%,0%,100%,100%,0%,40%,10%,100%,100%,100%,80%,93%,98%,99%,100%,–
COCCOC(=O)Oc1c(C)nn(C)c(=O)c1-c1cc(Oc2cnc3cc(Cl)ccc3n2)ccc1C [Compound 3-55],0%,0%,0%,0%,80%,0%,0%,30%,60%,0%,–,–,–,–,–,–,–,–,–,–,"Growth inhibition rate (%) Redroot pigweed [11, 23]: 0%; Growth inhibition rate (%) Soybean [12, 23]: 30%; Growth inhibition rate (%) Italian ryegrass [13, 23]: 99%; Growth inhibition rate (%) Corn [14, 23]: 50%; Growth inhibition rate (%) Barnyardgrass [15, 23]: 98%; Growth inhibition rate (%) Rice [16, 23]: 90%; Growth inhibition rate (%) Wheat [17, 23]: 98%; Growth inhibition rate (%) Wild oat [18, 23]: 99%; Growth inhibition rate (%) Crabgrass [19, 23]: 99%; Growth inhibition rate (%) Green foxtail [20, 23]: 100%"
Cc1ccc(Oc2cnc3cc(Cl)ccc3n2)cc1-c1c(O)c(C)nn(C)c1=O [Compound 2-7],0%,0%,0%,20%,99%,40%,25%,99%,100%,0%,50%,0%,100%,10%,100%,100%,98%,98%,–,100%,–
"Cc1ccc(Sc2ncc(C(F)(F)F)cc2Cl)cc1-c1c(O)c(C)nn(C)c1=O [1-2, 4-(5-((3-chloro-5-(trifluoromethyl)pyridin-2-yl)thio)-2-methylphenyl)-5-hydroxy-2,6-dimethylpyridazin-3(2H)-one]",–,–,–,–,–,–,–,–,–,–,0%,0%,99%,95%,100%,10%,20%,95%,99%,99%,"inhibition at 31 g/ha ([2]; Abutilon theophrasti, active ingredient amount 31 g/ha): 0%; inhibition at 31 g/ha ([3]; Glycine max, active ingredient amount 31 g/ha): 0%; inhibition at 31 g/ha ([4]; Zea mays, active ingredient amount 31 g/ha): 20%; inhibition at 31 g/ha ([5]; Echinochloa, active ingredient amount 31 g/ha): 98%; inhibition at 31 g/ha ([6]; Oryza sativa, active ingredient amount 31 g/ha): 20%; inhibition at 31 g/ha ([7]; Triticum aestivum, active ingredient amount 31 g/ha): 10%; inhibition at 31 g/ha ([8]; Digitaria sanguinalis, active ingredient amount 31 g/ha): 98%; inhibition at 31 g/ha ([9]; Setaria viridis, active ingredient amount 31 g/ha): 99%; inhibition at 31 g/ha ([10]; Sida spinosa, active ingredient amount 31 g/ha): 30%"
CC(=O)Oc1cnn(C)c(=O)c1-c1cc(Oc2nc3cc(Cl)ccc3o2)ccc1C [Compound 2-174],0%,0%,0%,20%,20%,0%,0%,80%,0%,0%,–,0%,95%,95%,100%,93%,93%,88%,93%,93%,–
Cc1ccc(Oc2cnc3cc(Cl)ccc3n2)cc1-c1c(O)c(C)nn(C)c1=O [Compound 3-1],0%,0%,–,20%,99%,40%,25%,–,–,0%,50%,0%,100%,10%,100%,100%,98%,98%,99%,100%,–
